# Test results as given in article PMC4191062, “Development of αGlcN(1↔1)αMan-Based Lipid A Mimetics as a Novel Class of Potent Toll-like Receptor 4 Agonists” (Journal of Medicinal Chemistry, 2014).
# Tested on: THP-1 cells
# Test: IRF-3 and IκBα phosphorylation by western blotting in THP-1 cells
# Type: cell-based, human
# Protocol: Supplementary SI-Figure 3
# Dose-dependent responses (THP-1 cells: α,α-GM-LAM 1-3 and Re-LPS) at the concentration range 0.4 – 100 ng/ml which are presented in the Figure 5, were extended to the higher concentration range (up to 300 ng/ml).
# SI-Figure 3. Dose-dependent expression of cytokines induced by α,α-GM-LAM 1-3 in macrophage cell line THP-1 compared to E. coli Re-LPS at the concentration range 0.4 – 300 ng/ml. (A) Production of TNF-α; (B) Induction of […]
# Supplementary SI-Figure 4
# Lipid A mimetic 1 was examined for the activation of NF-κB (Nuclear factor kappaB) and IRF3
# (Interferon regulatory factor 3). IRF3 activation […]
# noticeable after 1h stimulation, though was
# LPS. At 1h stimulation the α,α-GM-LAM 1 was […]
# whereas at 3h simulation compound 1 (at a […]
# stronger phosphorylation of IκBa (P-IκBa levels) as well as the higher levels of IκBa (reflecting the NF-κB dependent re-synthesis of IκB following its
# Thus, IRF3 activation and NF-κB activation […]
# degradation and its NF-κB dependent resynthesis) […]
# compared to LPS after 3h stimulation.
# SI-Figure 4. NF-κB and IRF-3 activation by LPS and α,α-GM-LAM 1 in macrophage-like cell line THP-1. THP-1 cells were treated for 1 h (upper panel) or for 3 h (lower panel) with 1 or with E. coli O111:B4 LPS at the concentrations 10, 100 and 1000 ng/ml. Non treated cells (NT) or cells treated with DMSO were used as controls.
# Cell extracts were separated by SDS polyacrylamide gel electrophoresis. Phosphorylated or total IRF-3 and IκBα was detected by western blotting as indicated. Actin detection was used as a control for equal loading in each line. […]
# Supplementary SI-Figure 6
# The relative contribution of hydrophobic (acyl chains of Lipid A) and electrostatic (phosphate groups of Lipid A) interactions at the dimerization interface of two TLR4·MD-2·LPS complexes as well as the impact of the molecular shape of MD-2–bound Lipid A on the initiation of TLR4-mediated immune response remains largely unknown. […]
structure (smiles),measurement,setting,value
"CCCCCCCCCCCCCC(=O)O[C@H](CCCCCCCCCCC)CC(=O)O[C@@H]1[C@@H](NC(=O)C[C@@H](CCCCCCCCCCC)OC(=O)CCCCCCCCCCC)[C@@H](O[C@H]2O[C@H](COP(=O)(O)O)[C@@H](OC(=O)C[C@@H](CCCCCCCCCCC)OC(=O)CCCCCCCCCCC)[C@H](O)[C@@H]2OC)O[C@H](CO)[C@H]1OP(=O)(O)O [Compound 1, 4-O-[(R)-3-(Dodecanoyloxy)tetradecanoyl]-2-O-methyl-6-O-phosphoryl-α-D-mannopyranosyl-(1↔1)-2-deoxy-2-[(R)-3-(dodecanoyloxy)tetradecanoylamino]-4-O-phosphoryl-3-O-[(R)-3-(tetradecanoyloxy)tetradecanoyl]-α-D-glucopyranoside]",activation of NF-κB compared with LPS,"THP-1, 1 h stimulation",comparable
same,IRF3 activation (IRF-3 phosphorylation),"THP-1, 3 h stimulation",detectable after 3h stimulation
same,activation of NF-κB compared with LPS (P-IκBα and IκBα levels),"THP-1, 3 h stimulation, concentration higher than 50 nM",more potent
